“Also recorded” adds a separate entry of the source.
Key:
Format in all cases: cell-based, human
[1] = system: BRCA1 sgRNA-infected (BRCA1 sg) cells; assay: FIN-induced lipid peroxidation and ferroptosis in BRCA1 sgRNA-infected cells; details: for effect of BRCA1 deficiency on the lipid peroxidation and ferroptosis induced by the compound: BRCA1 sg cells versus control; for effect on RSL3-induced cell death in BRCA1 sg cells: co-treatment with RSL3
Protocol: (§1) Knockout of BRCA1, BRCA2, VDAC3, GPX4, ECAD, 53BP1, and NCOA4 in human cell lines was performed using single guide RNAs (sgRNAs) and the CRISPR-Cas9 expression system as previously described. Briefly, sgRNAs were cloned into the lentiviral LentiGuide vector. The sequences of sgRNAs used in the current study are listed in SEQ ID NOs 1-23. LentiGuide clones were transfected into HEK293T cells with a psPAX2 packaging plasmid and pMD2.G-expressing plasmid. Cells were infected with lentivirus with 0.8 μg/mL polybrene and selected with puromycin (1 μg/mL, InvivoGen) or blasticidin (2 μg/mL, InvivoGen), followed by Western blot analysis to confirm target gene deletion. To maintain GPX4 knockout cells, we added 1 μM ferrostatin-1 into the media.
(§2) Viable cells were measured using Cell Counting Kit-8 (CCK-8, Dojindo) as previously described. Briefly, cells were seeded onto 96-well plates and subsequently treated with indicated agents. Next, cells were exposed to 10 μL of CCK-8 reagent (100 μL of medium per well) for 1 hour at 37° C. with 5% CO2 in an incubator. The absorbance at a wavelength of 450 nm was determined using a FLUOstar Omega microplate reader (BMG Labtech). The combination effects were assessed with Bliss independence model and the score is defined as “observed combination effect” minus “expected additive effect”.
(§3) Cell death was measured by propidium iodide (Roche) staining using a flow cytometer, as previously described. Briefly, cells were seeded onto 6- or 12-well plates and subsequently treated with indicated agents. For GPX4 knockout cells, ferrostatin-1 was removed from the culture media. Next, cells were collected (including floating dead cells) and stained with 5 μg/mL propidium iodide. The percentage of the propidium iodide-positive dead cells was determined using the flow cytometer BD Accuri C6 (BD Biosciences) or Attune NXT Flow Cytometer (ThermoFisher) with an FL2 detector. A minimum of 5,000 single cells were analyzed per well.
(§4) As previously described C11-BODIPY 581/591 (Invitrogen) was used for lipid peroxidation, MitoPerOx (Abcam) for mitochondrial lipid peroxidation, and CM-H2DCFDA (ThermoFisher) for ROS measurements. Briefly, cells were seeded on 6- or 12-well plates and subsequently treated with indicated agents. After staining with 2.5 μM C11-BODIPY 581/591, 2.5 μM MitoPerOx, or 4 μM CM-H2DCFDA for 20 minutes, cells were analyzed using the flow cytometer BD Accuri C6 (BD Biosciences) or Attune NxT Flow Cytometer (ThermoFisher) with a 488-nm laser on an FL1 detector. A minimum of 5,000 single cells were analyzed per well.

VDAC3-KO cells = assay: FIN-induced ferroptosis in VDAC3-KO cells; details: VDAC3 sg cells versus control
Protocol: as §1
Viable cells were measured using Cell Counting Kit-8 (CCK-8, Dojindo) as previously described. Briefly, cells were seeded onto 96-well plates and subsequently treated with indicated agents. […] The absorbance at a wavelength of 450 nm was determined using a FLUOstar Omega microplate reader (BMG Labtech). The combination effects were assessed with Bliss independence model and the score is defined as “observed combination effect” minus “expected additive effect”.
Cell death was measured by propidium iodide (Roche) staining using a flow cytometer, as previously described. […] The percentage of the propidium iodide-positive dead cells was determined using the flow cytometer BD Accuri C6 (BD Biosciences) or Attune NXT Flow Cytometer (ThermoFisher) with an FL2 detector. A minimum of 5,000 single cells were analyzed per well.
as §4, with “Briefly, cells were seeded on 6- or 12-well plates and subsequently treated with indicated agents.” left out

[2] = system: BRCA2 sgRNA infected HT1080 cells; assay: FIN sensitivity of BRCA2 sgRNA-infected HT1080 cells; details: BRCA2 sg HT1080 versus control
Protocol: as §1, §2

[3] = system: WT, BRCA1- or VDAC3-deficient cells; assay: Rescue of Erastin-induced ferroptosis by antioxidants (cell viability); details: for effect on Erastin-induced ferroptosis: wild-type (WT), BRCA1- or VDAC3-deficient cells
Protocol: as §2

SUM149 and HS578T cells = assay: ROS-related cell death in SUM149 and HS578T cells (cell viability)
Protocol: as §2

NRF2 and GPX4 = NRF2 and GPX4 protein levels (western blotting); details: for GPX4 levels: BRCA1-mutant SUM149 cells
Protocol: Cell pellets were lysed using immunoprecipitation lysis buffer (Fisher Scientific) or NP-40 buffer containing complete mini protease inhibitors (Roche). Protein concentrations were detected by a Bicinchoninic Acid Protein Assay (Thermo Scientific) using a FLUOstar Omega microplate reader (BMG Labtech). Immunoprecipitation and Western blot analysis were conducted as previously described. The primary antibodies and concentrations used in the current study included the followed: GPX4 (1:1,000, MAB5457, R&D systems), BRCA1 (1:1,000, 14823, Cell Signaling), BRCA2 (1:1,000, MAB2476-SP, R&D Systems), DHODH (1:1,000, 14877-1-AP, Proteintech), ACSL4 (1:1,000, sc-271800, Santa Cruz), FSP1 (1:1,000, 20886-1-AP, Proteintech), VDAC1 (1:1,000, 66345-1-Ig, Proteintech), VDAC2 (1:1,000, 66388-1-Ig, Proteintech), VDAC3 (1:1,000, 55260-1-AP, Proteintech), SLC7A11 (1:1,000, 12691, Cell Signaling), NCOA4 (1:1,000, 66849, Cell Signaling), vinculin (1:10000; […], Sigma), β-actin (1:1,000, 3700, Cell Signaling), LC3B (1:5000, 3868, Cell Signaling), 53BP1 (1:5000, NB100-304, Novus Biologicals), E-Cadherin (1:1000, 3195, Cell Signaling), and tubulin (1:5000, 2144, Cell Signaling).

[4] = system: BRCA1-mutant cancer cells (SUM149, HCC1937); assay: PARPi+GPX4i combination-induced lipid peroxidation and cell death; details: for effect on cell death induced by PARP inhibitor+GPX4 inhibitor combination: BRCA1-mutant cells
Protocol: as §3, §4

NCOA4 = NCOA4 expression after PARPi treatment (western blotting); details: SUM149 and HCC1937 cells
Protocol: Cell pellets were lysed using immunoprecipitation lysis buffer (Fisher Scientific) or NP-40 buffer containing complete mini protease inhibitors (Roche). Protein concentrations were detected by a Bicinchoninic Acid Protein Assay (Thermo Scientific) using a FLUOstar Omega microplate reader (BMG Labtech). Immunoprecipitation and Western blot analysis were conducted as previously described. The primary antibodies and concentrations used in the current study included the followed: GPX4 (1:1,000, MAB5457, R&D systems), BRCA1 (1:1,000, 14823, Cell Signaling), BRCA2 (1:1,000, MAB2476-SP, R&D Systems), DHODH (1:1,000, 14877-1-AP, Proteintech), ACSL4 (1:1,000, sc-271800, Santa Cruz), FSP1 (1:1,000, 20886-1-AP, Proteintech), VDAC1 (1:1,000, 66345-1-Ig, Proteintech), VDAC2 (1:1,000, 66388-1-Ig, Proteintech), VDAC3 (1:1,000, 55260-1-AP, Proteintech), SLC7A11 (1:1,000, 12691, Cell Signaling), NCOA4 (1:1,000, 66849, Cell Signaling), vinculin (1:10000; V4505, Sigma), β-actin (1:1,000, 3700, Cell Signaling), LC3B (1:5000, 3868, Cell Signaling), 53BP1 (1:5000, NB100-304, Novus Biologicals), E-Cadherin (1:1000, 3195, Cell Signaling), and tubulin (1:5000, 2144, Cell Signaling).

[5] = BRCA1 sgRNA infected SKOV3 cells

CC(C)Oc1ccc(C(=O)Cn2ccnc2)cc1-n1c(CN2CCN(C(=O)COc3ccc(Cl)cc3)CC2)nc2ccccc2c1=O [IKE, imidazole ketone erastin]
effect of BRCA1 deficiency on the lipid peroxidation and ferroptosis induced by the compound [1]: remarkably repressed
effect of VDAC3 deletion on the lipid peroxidation, ferroptosis or sensitivity induced by the compound (VDAC3-KO cells): largely abolished
effect of BRCA2 depletion on cellular sensitivity to the compound [2]: did not affect

CC1(C)CC(NC(=O)C[P+](c2ccccc2)(c2ccccc2)c2ccccc2)CC(C)(C)N1[O] [MitoTEMPO]
effect on cell viability of Erastin-treated cells ([3]; BRCA1- or VDAC3-deficient counterparts): did not provide a protective effect
effect on cell viability of Erastin-treated cells ([3]; WT cells): largely restored cell viability

CC(=O)N[C@@H](CS)C(=O)O [NAC, N-acetyl-1-cysteine]
effect on PARP inhibitor-induced cell killing (SUM149 and HS578T cells; BRCA1-deficient SUM149 cells): partially restored; also recorded: suppressed
effect on PARP inhibitor-induced NRF2 and GPX4 induction (NRF2 and GPX4; BRCA1-WT HS578T cells): abolished

CN1C(=O)NC(Cc2c[nH]c3c(Cl)cccc23)C1=O (centres unmarked) [Nec-1s]
effect on cell death induced by PARP inhibitor+GPX4 inhibitor combination [4]: not

CC(C)(C)OO [TBH, tert-butyl hydroperoxide]
cell death in BRCA1-deficient versus BRCA1-proficient cells (SUM149 and HS578T cells; SUM149 or BRCA1 sg HS578T cells compared with HS578T cells): induced more cell death

CC1(C)CCCC(C)(C)N1[O] [TEMPO]
effect on Erastin-induced ferroptosis [3]: completely suppressed

CCOC(=O)c1ccc(NC2CCCCC2)c(N)c1 [ferrostatin-1]
effect on cell death induced by PARP inhibitor+GPX4 inhibitor combination [4]: largely abolished
effect on RSL3-induced cell death in BRCA1 sg cells [1]: abolished
effect on Erastin-induced ferroptosis [3]: completely suppressed

NC(=O)c1cccc2cn(-c3ccc([C@@H]4CCCNC4)cc3)nc12 [niraparib]
NCOA4 expression (NCOA4): significantly induced

O=C(O)c1cc(/N=N/c2ccc(S(=O)(=O)Nc3ccccn3)cc2)ccc1O [sulfasalazine]
effect of BRCA1 deficiency on the lipid peroxidation and ferroptosis induced by the compound [1]: did not affect
effect of VDAC3 deletion on the lipid peroxidation, ferroptosis or sensitivity induced by the compound (VDAC3-KO cells): did not affect

C[S+]([O-])CCCCN=C=S (centres unmarked) [sulforaphane]
GPX4 levels (NRF2 and GPX4): increased GPX4 levels

CC(C)(C)c1cc(O)ccc1O [tert-butylhydroquinone]
effect on ferroptosis induced by olaparib+RSL3 combination ([4]; SUM149 cells): suppressed
effect on RSL3-induced ferroptosis [1, 5]: rendered these cells resistant to RSL3-induced ferroptosis
GPX4 levels (NRF2 and GPX4): increased GPX4 levels
NRF2 and GPX4 levels (NRF2 and GPX4; [5]): induced both NRF2 and GPX4 levels

Z-VAD
effect on cell death induced by PARP inhibitor+GPX4 inhibitor combination [4]: not
effect on RSL3-induced cell death in BRCA1 sg cells [1]: not

Reference: patent US20260130924A1, “COMPOSITIONS AND METHODS OF TREATING SUBJECTS WITH BRCA1 MUTATION OR DEFICIENCY” (BOARD OF REGENTS, THE UNIVERSITY OF TEXAS SYSTEM, priority 2022, published 2026)
